Experimental data as given in ChEMBL document CHEMBL1201862, “PubChem BioAssay data set” (2004).
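The compound was tested at five concentrations on cells cultured in 96-well plates, with a 48-hour exposure period. GI50: concentration for 50% inhibition of growth.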 Active and inactive are the calls of the source. Cut-off read from the data, not from the text of the source: active = GI50 up to about 1.1 µM and inactive = higher.

What was measured:
Assay in all cases: NCI-60 cell line screen, 48 h
T47D = tested on: T47D
TK-10 = tested on: TK-10
SK-MEL-28 = tested on: SK-MEL-28
HCT-15 = tested on: HCT-15
SK-MEL-2 = tested on: SK-MEL-2
OVCAR-3 = tested on: OVCAR-3
IGROV-1 = tested on: IGROV-1
SN12C = tested on: SN12C
HCC 2998 = tested on: HCC 2998
MDA-MB-435 = tested on: MDA-MB-435
SR = tested on: SR
OVCAR-5 = tested on: OVCAR-5
OVCAR-4 = tested on: OVCAR-4
HT-29 = tested on: HT-29
MDA-N = tested on: MDA-N
SNB-75 = tested on: SNB-75
ACHN = tested on: ACHN
BT-549 = tested on: BT-549
MCF7 = tested on: MCF7
SNB-19 = tested on: SNB-19

Row | SMILES | GI50 (T47D) | GI50 (TK-10) | GI50 (SK-MEL-28) | GI50 (HCT-15) [µM] | GI50 (SK-MEL-2) | GI50 (OVCAR-3) | GI50 (IGROV-1) | GI50 (SN12C) | GI50 (HCC 2998) | GI50 (MDA-MB-435) | GI50 (SR) | GI50 (OVCAR-5) | GI50 (OVCAR-4) | GI50 (HT-29) | GI50 (MDA-N) | GI50 (SNB-75) | GI50 (ACHN) | GI50 (BT-549) | GI50 (MCF7) | GI50 (SNB-19)
1 | COc1ccc(NC(=S)N/N=C(\C)c2nc3cccnc3[nH]2)cc1 | 3.26 µM (inactive) | 0.637 µM (active) | 6.46 µM (inactive) | 4.36 | 16.4 µM (inactive) | 1.79 µM (inactive) | 5.55 µM (inactive) | 5.65 µM (inactive) | 7.55 µM (inactive) | 6.62 µM (inactive) | 3.86 µM (inactive) | 6.11 µM (inactive) | 4.94 µM (inactive) | 5.37 µM (inactive) | 11.7 µM (inactive) | 12.5 µM (inactive) | 4.29 µM (inactive) | 4.57 µM (inactive) | 3.41 µM (inactive) | 5.32 µM (inactive)
2 | COc1ccc(OC)c(N2C(=O)/C(=C\c3ccccc3)SC2c2cc(OC)c(OC)c(OC)c2)c1 (stereo not given) | 12.4 µM (inactive) | > 100 µM (inactive) | > 100 µM (inactive) | 58.3 | > 100 µM (inactive) | 62.4 µM (inactive) | 29.8 µM (inactive) | > 100 µM (inactive) | > 100 µM (inactive) | 26.5 µM (inactive) | 33.7 µM (inactive) | > 93.3 µM (inactive) | > 91.8 µM (inactive) | > 87.3 µM (inactive) | 22 µM (inactive) | 26.2 µM (inactive) | 1.09 µM (active) | 68.4 µM (inactive) | 3.24 µM (inactive) | > 100 µM (inactive)
3 | C[C@]12CCC(=O)C=C1CC[C@@H]1[C@@H]2[C@@H](O)C[C@@]2(C)[C@H]1CC[C@]2(O)C(=O)CO [HYDROCORTISONE] | > 100 µM (inactive) | > 100 µM (inactive) | > 100 µM (inactive) | > 100 | > 100 µM (inactive) | > 100 µM (inactive) | > 100 µM (inactive) | 31.8 µM (inactive) | > 100 µM (inactive) | > 100 µM (inactive) | > 100 µM (inactive) | > 100 µM (inactive) | > 100 µM (inactive) | > 100 µM (inactive) | > 100 µM (inactive) | > 100 µM (inactive) | > 100 µM (inactive) | > 100 µM (inactive) | > 100 µM (inactive) | > 100 µM (inactive)
4 | C=C(C)[C@H]1Cc2c(ccc3c2O[C@@H]2COc4cc(OC)c(OC)cc4[C@@H]2C3=O)O1 [ROTENONE] | 0.0989 µM (active) | 0.229 µM (active) | 0.162 µM (active) | 0.122 | 0.171 µM (active) | 0.0566 µM (active) | 0.126 µM (active) | 0.404 µM (active) | 0.316 µM (active) | 0.0206 µM (active) | 0.617 µM (active) | 2.55 µM (inactive) | 0.577 µM (active) | 0.127 µM (active) | 0.0423 µM (active) | 0.152 µM (active) | 0.0522 µM (active) | 0.164 µM (active) | 0.281 µM (active) | 0.327 µM (active)
